PubChem BioAssay (NCI)
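Interpolation was linear, between the two tested concentrations surrounding the appropriate level; five concentrations were tested over 48 hours in 96-well plates. At the GI50, growth is halved. TGI denotes the concentration required for complete inhibition of growth.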

How the values were obtained:
Assay in all cases: DTP human tumour cell line panel, 48 h
MALME-3M melanoma = system: MALME-3M melanoma
LOX IMVI melanoma = system: LOX IMVI melanoma
HOP-92 NSCLC = system: HOP-92 NSCLC
IGROV1 ovarian = system: IGROV1 ovarian
NCI-H23 lung = system: NCI-H23 lung
SF-539 CNS = system: SF-539 CNS
A549 NSCLC = system: A549 NSCLC
RXF 393 renal = system: RXF 393 renal
OVCAR-4 ovarian = system: OVCAR-4 ovarian
MDA-MB-435 = system: MDA-MB-435

Row | SMILES | TGI (MALME-3M melanoma) | TGI (LOX IMVI melanoma) | TGI (HOP-92 NSCLC) | TGI (IGROV1 ovarian) | TGI (NCI-H23 lung) | TGI (SF-539 CNS) | TGI (A549 NSCLC) | TGI (RXF 393 renal) | TGI (OVCAR-4 ovarian) | GI50 (A549 NSCLC) | GI50 (HOP-92 NSCLC) | GI50 (RXF 393 renal) | GI50 (NCI-H23 lung) | GI50 (SF-539 CNS) | TGI (MDA-MB-435) | GI50 (MALME-3M melanoma) | GI50 (LOX IMVI melanoma) | GI50 (IGROV1 ovarian) | GI50 (MDA-MB-435) | GI50 (OVCAR-4 ovarian)
1 | COc1cccc(C2C(C(=O)O)=C(CO)Oc3cc4c(cc32)OCO4)c1 (centres undefined) | > 100 µM | > 100 µM | > 100 µM | > 100 µM | > 100 µM | > 100 µM |  |  |  |  |  |  |  |  |  |  |  |  |  | 
2 | COc1ccc2c(c1)O[C@H]1c3ccc(O)cc3OC[C@@H]21 | > 100 µM | 32.2 µM |  | 71.6 µM | 86.5 µM | 49.9 µM | > 100 µM | 54.9 µM | > 100 µM |  |  |  |  |  |  |  |  |  |  | 
3 | O=C(N1CCC(CN=c2cc3n(-c4ccc(Cl)cc4)c4ccccc4nc-3cc2Nc2ccc(Cl)cc2)CC1)N1CC1 |  |  | 37 µM |  | 3.23 µM | 3.13 µM | 11.7 µM | 1.29 µM |  | 0.71 µM | 13.5 µM | 0.369 µM | 1.65 µM | 1.63 µM |  |  |  |  |  | 
4 | O=NNc1cnccn1 | > 1250 µM | > 1250 µM | > 1250 µM | > 1250 µM | > 1250 µM | > 1250 µM | > 1250 µM | > 1250 µM | > 1250 µM |  |  |  |  |  | > 1250 µM |  |  |  |  | 
5 | BrCCC[P+](c1ccccc1)(c1ccccc1)c1ccccc1 | > 100 µM | 16.8 µM | 44.4 µM | > 66.9 µM | > 64.7 µM | > 100 µM | > 63.8 µM | 7.55 µM | > 100 µM |  |  |  |  |  | > 51.8 µM |  |  |  |  | 
6 | CCN(CC)CCC(=O)c1ccccc1 |  | 36 µM | 28.5 µM | > 100 µM | 45.6 µM | 44.2 µM | > 100 µM | 34.7 µM | 40.5 µM |  |  |  |  |  |  |  |  |  |  | 
7 | CCOC(=O)C1(C(=O)OCC)CSC1 |  | > 100 µM | > 100 µM |  | > 100 µM |  | > 100 µM | > 100 µM | > 100 µM |  |  |  |  |  | > 100 µM |  |  |  |  | 
8 | CCSc1nc(N2CCCCC2)c2cn[nH]c2n1 | 97.5 µM | > 100 µM | > 100 µM | > 100 µM | > 100 µM | 48.3 µM | > 100 µM | 92.4 µM | > 100 µM | 50.5 µM | 18.1 µM | 24.5 µM | 93.2 µM | 12.4 µM | 75.6 µM | 37.1 µM | 55.2 µM | 47 µM | 28.8 µM | 88.3 µM
9 | CC(=O)NC(CCCCNC(=O)OC(C)(C)C)C(=O)O (centres undefined) | > 100 µM | > 100 µM |  | > 100 µM |  |  | > 100 µM |  | > 100 µM |  |  |  |  |  | > 100 µM |  |  |  |  | 
10 | COC(=O)C1=COC2OC3/C(=C\c4ccc(O)c(OC)c4)C(=O)OC34C=CC1C24 (centres undefined) | 31 µM |  | 44.6 µM | 40.3 µM | 32.5 µM | 31.2 µM | 32.4 µM |  | 34.4 µM |  |  |  |  |  |  |  |  |  |  | 
11 | CN(C)CS/C(N)=N\C(O)C(Cl)(Cl)Cl (centres undefined) | > 100 µM | > 100 µM | > 100 µM | > 100 µM | > 100 µM |  | > 100 µM | > 100 µM | > 100 µM |  |  |  |  |  | > 100 µM |  |  |  |  | 
12 | Cn1c(=O)c2c(ncn2CCSS(=O)(=O)O)n(C)c1=O | > 100 µM |  | > 100 µM | > 100 µM | > 100 µM | > 100 µM | > 100 µM | > 100 µM | > 100 µM |  |  |  |  |  | > 100 µM |  |  |  |  | 
13 | CC(=O)[O-].[Ni].c1ccc(/C(=N\Nc2ccccn2)c2ccccn2)cc1 | 20.9 µM | 22.3 µM | 22.3 µM | 29.7 µM | 28.9 µM | 24.7 µM | 49.2 µM | 30 µM | > 59.7 µM |  |  |  |  |  | 22.4 µM |  |  |  |  | 
14 | CC(=O)[O-].CC(=O)[O-].O=C(N/N=C/c1cc(Cl)cc(Cl)c1[OH2+])c1ccncc1.[Zn+2] | > 100 µM | > 100 µM |  | > 100 µM | > 100 µM | > 100 µM | > 100 µM | > 100 µM |  |  |  |  |  |  |  |  |  |  |  | 
15 | c1ccc(SC(Sc2ccccc2)c2ccc3c(c2)OCO3)cc1 | > 100 µM | > 100 µM | > 100 µM | > 100 µM | > 100 µM |  | > 100 µM | > 100 µM | > 100 µM |  |  |  |  |  | > 100 µM |  |  |  |  | 
16 | CCOc1ccc(N=Nc2ccc3oc(=O)c(/C(C)=N\NC(=O)CC(=O)Nc4ccc(Cl)cc4)cc3c2)cc1 | 30.3 µM | 26.5 µM | 54.9 µM | 45.4 µM | 41.9 µM | 33.5 µM | 43.3 µM | 29.6 µM | 37.9 µM |  |  |  |  |  |  |  |  |  |  | 
17 | O=C(O)c1cncc(C(=O)O)c1 | > 100 µM | > 100 µM |  | > 100 µM | > 100 µM | > 100 µM | > 100 µM | > 100 µM | > 100 µM |  |  |  |  |  | > 100 µM |  |  |  |  | 
18 | O=c1[nH]cc(N(CCCl)CCCl)c(=O)[nH]1 | 106 µM | 165 µM | 123 µM | 266 µM | 97.6 µM | 60.5 µM | 314 µM | 81.1 µM | 199 µM |  |  |  |  |  | 136 µM |  |  |  |  | 
19 | C=C(CN(C)C)C(=O)c1cc(C)ccc1C | 7.77 µM | 13.8 µM | 8.2 µM | 34.7 µM | 33.4 µM | 19.2 µM | 41.6 µM | 9.52 µM | 39.4 µM |  |  |  |  |  | 22.1 µM |  |  |  |  | 
